Measured values taken from publication PMC4177084 (Journal of Thyroid Research, 2014).
Where two headings read alike, the source gives them in different places.

Experiments:
RO82-W-1 cells = assay: Antiproliferation assay (WST-8); assay type: cell-based, human; settings: for antiproliferative activity: RO82-W-1, in words; for T/N: ratio of IC50 values of thyroid cancer cell lines to that of Nthy-ori 3-1 cells: RO82-W-1; for IC50: RO82-W-1 (DTC), antiproliferative, 3 days
Nthy-ori 3-1 cells = assay: Antiproliferation assay (WST-8); assay type: cell-based, human; settings: Nthy-ori 3-1 (normal thyroid), antiproliferative, 3 days
K1 cells = assay: Antiproliferation assay (WST-8); assay type: cell-based, human; settings: for T/N: ratio of IC50 values of thyroid cancer cell lines to that of Nthy-ori 3-1 cells: K1; for IC50: K1 (DTC), antiproliferative, 3 days
FTC-133 cells = assay: Antiproliferation assay (WST-8); assay type: cell-based, human; settings: for T/N: ratio of IC50 values of thyroid cancer cell lines to that of Nthy-ori 3-1 cells: FTC-133; for IC50: FTC-133 (DTC), antiproliferative, 3 days
FTC-236 cells = assay: Antiproliferation assay (WST-8); assay type: cell-based, human
FTC-238 cells = assay: Antiproliferation assay (WST-8); assay type: cell-based, human; settings: for T/N: ratio of IC50 values of thyroid cancer cell lines to that of Nthy-ori 3-1 cells: FTC-238; for IC50: FTC-238 (DTC), antiproliferative, 3 days
COT = target: T1, COT (Homo sapiens, UniProt P41279); assay: Cell free kinase inhibition assay; assay type: biochemical
T1 construct: purchased Carna Biosciences, Inc. (Kobe, Japan)
T1 sequence (P41279 whole entry): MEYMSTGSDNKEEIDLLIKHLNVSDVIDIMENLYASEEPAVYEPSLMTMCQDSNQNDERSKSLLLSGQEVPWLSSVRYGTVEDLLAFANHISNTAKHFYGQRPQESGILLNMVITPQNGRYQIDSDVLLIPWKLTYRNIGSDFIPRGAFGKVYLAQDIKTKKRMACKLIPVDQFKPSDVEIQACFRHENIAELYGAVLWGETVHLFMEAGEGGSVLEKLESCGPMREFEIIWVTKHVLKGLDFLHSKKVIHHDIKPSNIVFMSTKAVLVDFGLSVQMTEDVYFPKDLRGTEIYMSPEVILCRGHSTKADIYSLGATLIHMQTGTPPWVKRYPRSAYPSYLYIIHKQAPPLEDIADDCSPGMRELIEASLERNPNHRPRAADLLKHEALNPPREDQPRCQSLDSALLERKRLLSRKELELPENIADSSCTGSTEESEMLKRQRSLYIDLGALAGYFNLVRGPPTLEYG
Experimental: […]. Briefly, each test compound was mixed with enzyme, substrate, ATP, and Mg under appropriate buffer conditions for the ELISA or MSA. […] IC50 values (the half maximal inhibitory concentration) were calculated from concentrations versus % inhibition curves.

TT cells = assay: Antiproliferation assay (WST-8); assay type: cell-based; settings: Homo sapiens, TT, 240 h
RO82-W-1 xenograft = assay: Human thyroid cancer xenograft model, tumor growth; assay type: in vivo, nude mice
Experimental: Nude mice (CAnN.Cg-Foxn1nu/CrlCrlj, female, 5-6 weeks old) were obtained from Charles River Laboratories Japan (Kanagawa, Japan). Mice were maintained under specific pathogen-free conditions and housed in barrier facilities on a 12 h light/dark cycle, with food and water ad libitum. All procedures using laboratory animals were done in accordance with all applicable institutional and government regulatory guidelines and policies and were performed in an animal facility accredited by the Center for Accreditation of Laboratory Animal Care of the Japan Health Sciences Foundation.
Tumor cells were cultured in appropriate culture mediums. Cells were harvested with 0.05% or 0.25% (w/v) trypsin/EDTA and suspended with 50% (v/v) BD Matrigel (BD Biosciences, San Jose, CA) in the mixture of culture mediums at a density of 5–10 × 10^7 cells/mL. Then, 0.1-0.2 mL of the cell suspension was inoculated subcutaneously into the right flank region of each mouse. […] The tumor size was measured in two dimensions by using a caliper, and the volume was calculated by using the formula: tumor volume (mm^3) = 1/2 length (mm) × [width (mm)]^2. The change in tumor volume in the treated group relative to that in the control group was calculated according to the following formula: ΔT/C = (ΔT/ΔC) × 100%, where ΔT and ΔC are the change in tumor volume (i.e., growth) for the treated and vehicle control group, respectively. The percentage of tumor growth inhibition (%TGI) was calculated from the formula: [(1 − ΔT/ΔC) × 100].
Supplementary Fig. S7 Comparison of antitumor activity with antiangiogenesis activity in human differentiated thyroid cancer RO82-W-1 xenografts in nude mice.
Nude mice bearing RO82-W-1 xenografts […]
when tumor volumes reached about 200 mm3 (day 1). The tumor volume was measured on day 22. Each group consisted of 6 mice. Data are shown as means ± SD. * P < 0.05 compared with vehicle-treated mice.
(b) The percentage of tumor growth inhibition (%TGI). Each group consisted of 6 mice. Antitumor activity was calculated as %TGI at day 22. Data are shown as means ± SD. * P < 0.05 compared […]
analyze the relationship between antitumor activity (%TGI) and antiangiogenesis activity (percentage of […]
sorafenib-treated groups were plotted on the X- and Y-axes, respectively. %TGI and %MVI was determined as described in Materials and Methods. Analysis of covariance (ANCOVA) for %TGI was examined by using %MVI as a covariate (P<0.05)

[1] = tested on: FGFR1 and its downstream effectors (FRS2, MEK, ERK); assay: Western blot of FGFR1 signaling in bFGF-stimulated RO82-W-1 cells
[2] = FTC-236 (DTC), antiproliferative, 3 days, read-out: IC50

Compound | antiproliferative activity (RO82-W-1 cells) | IC50 (Nthy-ori 3-1 cells) | T/N: ratio of IC50 values of thyroid cancer cell lines to that of Nthy-ori 3-1 cells (K1 cells) | IC50 (K1 cells) | T/N: ratio of IC50 values of thyroid cancer cell lines to that of Nthy-ori 3-1 cells (RO82-W-1 cells) | IC50 (RO82-W-1 cells) | T/N: ratio of IC50 values of thyroid cancer cell lines to that of Nthy-ori 3-1 cells (FTC-133 cells) | IC50 (FTC-133 cells) | IC50 (FTC-236 cells; [2]) | T/N: ratio of IC50 values of thyroid cancer cell lines to that of Nthy-ori 3-1 cells (FTC-238 cells) | IC50 (FTC-238 cells) | IC50 (K1 cells; Homo sapiens, 72 h) | IC50 (RO82-W-1 cells; Homo sapiens, 72 h) | IC50 (FTC-133 cells; Homo sapiens, 72 h) | IC50 (FTC-238 cells; Homo sapiens, 72 h) | other results
Cc1ccc(NC(=O)c2ccc(CN3CCN(C)CC3)cc2)cc1Nc1nccc(-c2cccnc2)n1 [Glivec, imatinib] | no antiproliferative activity | – | – | – | – | – | – | – | – | – | – | – | – | – | – | –
COc1ccc(Oc2ccnc3cc(OC)c(OC)cc23)cc1OC [Ki6783] | no antiproliferative activity | 1.7 µM | 5.4 | 9.2 µM | 1.5 | 2.5 µM | 4.7 | 8 µM | > 30 µM | 1.2 | 2 µM | – | – | – | – | –
CNC(=O)c1cc(Oc2ccc(NC(=O)Nc3ccc(Cl)c(C(F)(F)F)c3)cc2)ccn1 [Sorafenib] | – | – | – | – | – | – | – | – | – | – | – | 5.2 µM | 4.2 µM | 5.5 µM | 7.3 µM | IC50 (COT): > 10 µM; IC50 (FTC-236 cells; Homo sapiens, 72 h): 7.7 µM; IC50 (TT cells): 0.26 µM; tumor growth (RO82-W-1 xenograft; RO82-W-1 xenografts, oral once daily 21 days, doses between 30 and 300 mg/kg): inhibited tumor growth; phosphorylation of MEK ([1]; 10 μM, bFGF-stimulated): weakly inhibited; phosphorylation of FGFR1 or its other downstream effectors ([1]; up to 10 μM, bFGF-stimulated): did not clearly inhibit
CCN(CC)CCCCNc1ncc2cc(-c3cc(OC)cc(OC)c3)c(NC(=O)NC(C)(C)C)nc2n1 [PD173074] | – | – | 2.39 | – | 0.14 | – | 2.11 | – | – | 2.04 | – | 11 µM | 0.63 µM | 9.7 µM | 9.4 µM | IC50 (Nthy-ori 3-1 cells; Homo sapiens, 72 h): 4.6 µM; T/N: ratio of IC50 values of thyroid cancer cell lines to that of Nthy-ori 3-1 cells (FTC-236 cells; FTC-236): 0.93; IC50 (FTC-236 cells; Homo sapiens, 72 h, FTC-236 (DTC), antiproliferative, 3 days, read-out: IC50): 4.3 µM; antitumor activity (RO82-W-1 xenograft; RO82-W-1 xenograft, daily oral administration for 14 days): significant antitumor activity; phosphorylation of FGFR1, FRS2, MEK, and ERK ([1]; 1 h treatment, then bFGF 20 ng/mL and heparin 10 min): inhibited the bFGF-induced phosphorylation of FGFR1, FRS2, MEK, and ERK in a concentration-dependent manner
COc1cc(OC)cc(-c2cc3cnc(N)nc3nc2NC(=O)NC(C)(C)C)c1 [PD166866] | – | 14 µM | 2.07 | 29 µM | 0.14 | 1.9 µM | 1.64 | 23 µM | > 30 µM | 1.5 | 21 µM | – | – | – | – | –
